≈ marks a conversion by molar mass, not a printed value. Entries after “also recorded” stand apart in the source; their conditions may differ.
What was measured:
[1] = test system: T. cruzi bloodstream trypomastigotes; test: Trypanocidal activity on T. cruzi bloodstream trypomastigotes (counting of living parasites in Neubauer chamber); format: cell-based, Trypanosoma cruzi; conditions: for IC50: Trypanosoma cruzi, 24 h incubation, 0-100 µg/mL, living parasites counted, read-out: IC50 against T. cruzi bloodstream trypomastigotes; for Selectivity Index Trypomastigotes T. cruzi: Vero CC50 relative to trypomastigote IC50; for activity against the infective form of T. cruzi compared with estafietin (in words): trypomastigotes, discussion statement
Experimental: Figure 2 Trypanocidal activity of estafietin (1) and estafietin derivatives (2–5) against T. cruzi bloodstream trypomastigotes. Bloodstream trypomastigotes were assayed in duplicate in the presence of 0 to 100 µg/mL of estafietin (1), 11βH,13-dihydroestafietin (2), α- (3a) and β-epoxyestafietin (3b) (1:4 mixture), 11βH,13-methoxyestafietin (4) and 11βH,13-cianoestafietin (5). Cultures were done in 96-well plates with 1.5 × 10^6 parasites/mL over 24 h. The living parasites were then counted in a Neubauer chamber. Symbols represent mean ± SEM. Each treatment was compared to controls: parasites incubated with culture medium only. * p < 0.05, ** p < 0.01 and *** p < 0.005. TEXT PRINTED IN THE PICTURE: Estafietin (1): IC50 (μg/mL): 25.2 | 11βH,13-dihydroestafietin (2): IC50 (μg/mL): 97.1 | α and β epoxyestafietin (3a and 3b): IC50 (μg/mL): 18.7 | 11βH,13-methoxyestafietin (4): IC50 (μg/mL): >100 | 1βH,13-cianoestafietin (5): IC50 (μg/mL): 78.1
The trypanocidal effect of the purified compounds was tested on transfected bloodstream trypomastigotes (Tulhauen strain). Briefly, mouse blood containing trypomastigotes was diluted in complete LIT medium to adjust the parasite concentration to 2 × 10^6/mL. Parasites were seeded in duplicate in a 96-well microplate in the presence of each compound (0–100 µg/mL) and controls and incubated at 4 °C for 24 h. The number of remaining living parasites in each sample was determined in 5 µL of cell suspension diluted 1/5 in lysis buffer (0.75% NH4Cl, 0.2% Tris, pH 7.2) and counted in a Neubauer chamber.
(§1) Results are presented as means ± SEM. The GraphPad Prism 5.0 software (GraphPad Software Inc., San Diego, CA, USA) was employed to carry out calculations. To calculate IC50 and CC50 values, the percentages of inhibition were plotted against the drug concentration and fitted with a straight line determined by a linear regression (Sigma Plot 10 software, (Systat Software, San Jose, CA, USA). Results presented are representative of three to four independent experiments.

T. cruzi amastigotes = test: Inhibition of T. cruzi amastigote replication in Vero cells (β-galactosidase transfected parasites, CPRG); format: cell-based, Trypanosoma cruzi; conditions: for IC50: infected Vero cells, 0-100 µg/mL, β-galactosidase/CPRG readout, read-out: IC50 against T. cruzi amastigotes (intracellular forms); for Selectivity Index Amastigotes T. cruzi: Vero CC50 relative to amastigote IC50
Experimental: Figure 3 Inhibition of T. cruzi amastigotes replication by estafietin (1) and estafietin derivatives (2–5). Mammalian cells (5 × 10^3 cells/well) were seeded in 96-well plates and infected 24 h later with transfected trypomastigotes expressing β-galactosidase. After 24 h of co-culture, plates were washed and compounds were added at 0–100 µg/mL in 150 µL medium. On day 6 post-infection, the assays were developed by the addition of CPRG (100 mM) and Nonidet P-40 (1%). Plates were incubated for 6 h and the optical density was read at 570 nm. Infected untreated mammalian cells were used as 100% infection control. The percentage of inhibition was calculated as 100 − {[(Absorbance of treated infected cells)/(Absorbance of untreated infected cells)] × 100}. Symbols represent mean ± SEM. Each treatment was compared to controls: parasites incubated with culture medium only. * p < 0.05, ** p < 0.01 and *** p < 0.005. TEXT PRINTED IN THE PICTURE: Estafietin (1): IC50 (μg/mL): 28.8 | 11βH,13-dihydroestafietin (2): IC50 (μg/mL): 83.0 | α and β epoxyestafietin (3a and 3b): IC50 (μg/mL): 2.0 | 11βH,13-methoxyestafietin (4): IC50 (μg/mL): 30.5 | 11βH,13-cianoestafietin (5): IC50 (μg/mL): 99.0
The effect of the compounds on intracellular forms of T. cruzi was assayed using β-galactosidase transfected parasites. Ninety-six well culture plates were seeded with nonphagocytic Vero cells at 5 × 10^3 per well in […] of culture medium and incubated for 24 h at 37 °C in a 5% CO2 atmosphere. Cells were then washed and infected with transfected bloodstream trypomastigotes expressing β-galactosidase at a parasite/cell ratio of 10:1. After […] of coculture, plates were washed twice with PBS to remove unbound parasites and each pure compound was added at different concentrations (0–100 µg/mL) in 150 µL of fresh complete RPMI medium without phenol red (Gibco, Rockville, MD, USA). Controls included infected untreated cells (100% infection control) and uninfected cells (0% infection control). The assay was developed by the addition of chlorophenolred-β-D-galactopyranoside (CPRG) (100 mM) and 1% Nonidet P40, 5 days later. Plates were incubated for 4–6 h at 37 °C and the absorbance was measured at 595 nm in a microplate reader (Bio-Rad Laboratories, Hercules, CA, USA). The percentage inhibition was calculated as 100 – {[(absorbance of treated infected cells)/(absorbance of untreated infected cells) × 100]} and the IC50 value was estimated. Benznidazole was used as positive control.
as §1

[2] = test system: L. braziliensis promastigotes; test: Leishmanicidal activity on L. braziliensis promastigotes ([3H] thymidine uptake assay); format: cell-based, Leishmania braziliensis; conditions: for IC50: Leishmania braziliensis, 72 h, 0-50 µg/mL, [3H] thymidine uptake; for Selectivity Index Promastigotes L. braziliensis: Vero CC50 relative to promastigote IC50
Experimental: Figure 4 Leishmanicidal activity of estafietin (1) and estafietin derivatives (2–5) on L. braziliensis promastigotes. Parasites were cultured for 72 h in the presence of each compound (0–50 µg/mL). The inhibition of parasite growth was evaluated by a [^3H] thymidine uptake assay. The percentage of inhibition was calculated as 100 − [(cpm of treated parasites)/(cpm of untreated parasites)] × 100. Values represent mean ± SEM from three independent experiments carried out in triplicate. Each treatment was compared to controls: parasites incubated with culture medium only. * p < 0.05, ** p < 0.01 and *** p < 0.005. TEXT PRINTED IN THE PICTURE: Estafietin (1): IC50 (μg/mL): 1.0 | 11βH,13-dihydroestafietin (2): IC50 (μg/mL): 1.3 | α and β epoxyestafietin (3a and 3b): IC50 (μg/mL): 7.8 | 11βH,13-methoxyestafietin (4): IC50 (μg/mL): 48.7 | 11βH,13-cianoestafietin (5): IC50 (μg/mL): 51.8
The growth inhibition of Leishmania braziliensis promastigotes was evaluated by the (^3H) thymidine [(^3H)T] uptake assay. Parasites (5 × 10^6) were settled at a final volume of 150 µL in a flat-bottom 96-well microplate and cultured at 28 °C in either the absence or the increasing concentrations of the pure compounds (0–50 µg/mL). After 72 h, 1 µC of [^3H]T was added to each well, and cultures were incubated for 16 h. Counts per minute (cpm) of triplicate cultures were measured by an automated liquid scintillation counter (Packard, Downers Grove, IL, USA). The percentage of inhibition was calculated as {100 − [(cpm of treated parasites/cpm of untreated parasites) × 100]}. The compound concentration at which the parasite growth was inhibited by 50% (IC50) was determined. Amphotericin B was used as positive control.
as §1

[3] = Host cell toxicity on Vero cells by the MTT method; format: cell-based; conditions: African green monkey, 24 h, 5-500 µg/mL, read-out: CC50 (50% cytotoxic concentration)
Experimental: (§2) The cytotoxicity of the natural and synthetic compounds was evaluated on Vero cells by the MTT method. The 50% cytotoxic concentration (CC50) of each compound was determined. Selectivity indexes (SI) were calculated for T. cruzi trypomastigotes and amastigotes and for L. braziliensis promastigotes (Table 1).
(§3) Vero cells were employed to determine the viability by the 3-(4,5-dimethylthiazol-2yl)-2,5-diphenyltetrazolium bromide (MTT) method. Cells (5 × 10^5) were settled at a final volume of […] in a flat-bottom 96-well microplate and cultured at 37 °C in a 5% CO2 atmosphere in either the absence or the presence of increasing concentrations of the compounds (5–500 µg/mL). After 24 h, MTT was added at a final concentration of 1.5 mg/mL. Plates were incubated for 2 h at 37 °C. The purple formazan crystals formed were dissolved with […] of ethanol and the absorbance was read at 570 nm in a microplate reader. Results were calculated as the ratio between the optical density in the presence and absence of the compound multiplied by 100.
as §1

Vero cells = test: Host cell toxicity on Vero cells by the MTT method; format: cell-based
Experimental: as §2, §3, §1

T. cruzi epimastigotes = test system: T. cruzi epimastigotes; design: method as in PMID 23815577; conditions: series of 15 STLs; cited from earlier work

For `C=C1CCC2C(CC#N)C(=O)OC2C2C1CC1OC12C` (stereo not shown) [Compound 5, 11βH,13-cianoestafietin], the IC50 [1] was 78.1 µg/mL (≈ 286 µM), the “Selectivity Index Trypomastigotes T. cruzi” value [1] was 1.7 and the “activity against the infective form of T. cruzi compared with estafietin (in words)” value (from here on “activity … compared with estafietin (in words)”) [1] was “inactive”. The IC50 (T. cruzi amastigotes; Trypanosoma cruzi) was 99 µg/mL (≈ 362 µM), the “Selectivity Index Amastigotes T. cruzi” value (T. cruzi amastigotes) was 1.3 and the IC50 [2] was 51.8 µg/mL (≈ 190 µM). For the same compound, the “Selectivity Index Promastigotes L. braziliensis” value [2] was 2.7, the CC50 at 24 h [3] was 134 µg/mL (≈ 489 µM) and the “toxicity on mammalian cells (in words)” value (Vero cells) was “low toxicity”.

For `C=C1CCC2C(C)C(=O)OC2C2C1CC1OC12C` (stereo not shown) [Compound 2, 11βH,13-dihydroestafietin], the IC50 [1] was 97.1 µg/mL (≈ 391 µM), the “Selectivity Index Trypomastigotes T. cruzi” value [1] was 1.7 and the “activity … compared with estafietin (in words)” value [1] was “less active”. For the same compound, the IC50 (T. cruzi amastigotes; Trypanosoma cruzi) was 83 µg/mL (≈ 334 µM), the “Selectivity Index Amastigotes T. cruzi” value (T. cruzi amastigotes) was 2.0 and the IC50 [2] was 1.3 µg/mL (≈ 5.24 µM). The “Selectivity Index Promastigotes L. braziliensis” value [2] was 126.6, the CC50 at 24 h [3] was 165 µg/mL (≈ 663 µM) and the “toxicity on mammalian cells (in words)” value (Vero cells) was “low toxicity”.

In the case of `C=C1CCC2C(COC)C(=O)OC2C2C1CC1OC12C` (stereo not shown) [Compound 4, 11βH,13-methoxyestafietin], the IC50 [1] is reported as greater than 100 µg/mL, the “Selectivity Index Trypomastigotes T. cruzi” value [1] is reported as 3.1 and the “activity … compared with estafietin (in words)” value [1] is reported as “less active”. The IC50 (T. cruzi amastigotes; Trypanosoma cruzi) was 30.5 µg/mL (≈ 110 µM), the “Selectivity Index Amastigotes T. cruzi” value (T. cruzi amastigotes) was 10.3 and the IC50 [2] was 48.7 µg/mL (≈ 175 µM). For the same compound, the CC50 at 24 h [3] was 316 µg/mL (≈ 1130 µM) and the “toxicity on mammalian cells (in words)” value (Vero cells) was “low toxicity; also recorded: not toxic”.

`O=C(Cn1ccnc1[N+](=O)[O-])NCc1ccccc1` [Benznidazole, reference compound] showed an IC50 [1] of 11.6 µg/mL (≈ 44.6 µM) and an IC50 (T. cruzi amastigotes; Trypanosoma cruzi) of 1.8 µg/mL (≈ 6.92 µM).

`C[C@@H]1[C@H](O)[C@@H](C)/C=C/C=C/C=C/C=C/C=C/C=C/C=C/[C@H](O[C@@H]2O[C@H](C)[C@@H](O)[C@H](N)[C@@H]2O)C[C@@H]2O[C@](O)(C[C@@H](O)C[C@@H](O)[C@H](O)CC[C@@H](O)C[C@@H](O)CC(=O)O[C@H]1C)C[C@H](O)[C@H]2C(=O)O` [Amphotericin B, reference compound] gave an IC50 [2] of 0.48 µg/mL (≈ 0.519 µM).

In the case of `C=C1C(=O)O[C@@H]2C3C(C[C@H]4O[C@@]34C)C3(CC[C@@H]12)CO3` (stereo partly shown) [Compound 3, epoxyestafietin], the IC50 [1] is reported as 18.7 µg/mL (≈ 71.3 µM), the “Selectivity Index Trypomastigotes T. cruzi” value [1] is reported as 0.4 and the inhibition at 5 µg/mL (T. cruzi amastigotes; Trypanosoma cruzi, Vero, at a concentration of 5.0 µg/mL, read-out: percentage of inhibition of T. cruzi amastigotes) is reported as greater than 75%. The IC50 (T. cruzi amastigotes; Trypanosoma cruzi) was 2 µg/mL (≈ 7.62 µM), the “Selectivity Index Amastigotes T. cruzi” value (T. cruzi amastigotes) was 4.0 and the IC50 [2] was 7.8 µg/mL (≈ 29.7 µM). For the same compound, the “Selectivity Index Promastigotes L. braziliensis” value [2] was 1.0 and the CC50 at 24 h [3] was 8.1 µg/mL (≈ 30.9 µM).

In the case of `C=C1CC[C@H]2C(=C)C(=O)O[C@@H]2C2C1C[C@H]1O[C@@]21C` (stereo partly shown) [Compound 1, estafietin], the IC50 [1] is reported as 25.2 µg/mL (≈ 102 µM), the “Selectivity Index Trypomastigotes T. cruzi” value [1] is reported as 9.5 and the IC50 (T. cruzi amastigotes; Trypanosoma cruzi) is reported as 28.8 µg/mL (≈ 117 µM). The “Selectivity Index Amastigotes T. cruzi” value (T. cruzi amastigotes) was 8.3, the IC50 [2] was 1 µg/mL (≈ 4.06 µM) and the “Selectivity Index Promastigotes L. braziliensis” value [2] was 240.4. The CC50 at 24 h [3] was 240 µg/mL (≈ 976 µM), the “toxicity on mammalian cells (in words)” value (Vero cells) was “low toxicity” and the “activity on T. cruzi epimastigotes (in words)” value (T. cruzi epimastigotes) was “significant activity”.

Source: article PMC6479983, “Activity of Estafietin and Analogues on Trypanosoma cruzi and Leishmania braziliensis” (Molecules, 2019)
